Test results from US20110092547A1 (priority 2007, published 2011).
pIC50: −log10 of the molar value.

What follows are compounds tested against T1, human DGAT1 (Homo sapiens, UniProt O75907) (assay: Human enzyme assay, further developed assay (14C oleoyl CoA, 96 well plate)). Details: human DGAT1 expressed in insect cell (sf9) membranes.
T1 construct: made in house; host or cells: Sf9 insect cells (recombinant baculovirus); membrane fraction
T1 sequence (O75907 1-488): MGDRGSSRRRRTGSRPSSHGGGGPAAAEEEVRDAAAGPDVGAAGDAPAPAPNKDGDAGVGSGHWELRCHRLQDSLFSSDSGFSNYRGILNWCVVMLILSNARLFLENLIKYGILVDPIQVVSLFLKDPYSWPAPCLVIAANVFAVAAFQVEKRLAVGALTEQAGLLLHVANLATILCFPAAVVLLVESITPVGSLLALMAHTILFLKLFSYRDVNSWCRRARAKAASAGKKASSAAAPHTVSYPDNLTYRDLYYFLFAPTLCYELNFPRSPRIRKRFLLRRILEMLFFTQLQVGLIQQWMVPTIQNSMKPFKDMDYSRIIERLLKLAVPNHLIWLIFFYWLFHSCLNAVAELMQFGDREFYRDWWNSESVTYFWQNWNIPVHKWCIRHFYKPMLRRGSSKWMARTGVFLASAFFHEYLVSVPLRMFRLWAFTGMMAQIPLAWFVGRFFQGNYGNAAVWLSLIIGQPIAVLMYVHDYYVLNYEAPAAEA
Type: biochemical
Method: The in vitro assay to identify DGAT1 inhibitors uses human DGAT1 expressed in insect cell membranes as the enzyme source (Proc. Natl. Acad. Sci. 1998, 95, 13018-13023). Briefly, sf9 cells were infected with recombinant baculovirus containing human DGAT1 coding sequences and harvested after 48 h. Cells were lysed by sonication and membranes isolated by centrifuging at 28000 rpm for 1 h at 4° C. on a 41% sucrose gradient. The membrane fraction at the interphase was collected, washed, and stored in liquid nitrogen.
In a further developed assay, DGAT1 activity was assayed by a modification of the method described by Coleman (Methods in Enzymology 1992, 209, 98-102). Compound at 0.00003-10 μM (final cone) was incubated with 25 μg/ml (final cone) membrane protein, 5 mM MgCl2, and 100 μM 1,2 dioleoyl-sn-glycerol in a total assay volume of 200 μl in a 96 well plate. The reaction was started by adding ^14C oleoyl coenzyme A (30 μM final concentration) and incubated at room temperature for 30 minutes. The reaction was stopped by adding 300 μl 2-propanol:heptane 7:1. Radioactive triolein product was separated into the organic phase by adding 200 μl heptane and 200 μl 0.1 M carbonate buffer pH 9.5. DGAT1 activity was quantified by counting aliquots of the upper heptane layer by liquid scintillography.

SMILES	pIC50
CC(C)(C)c1ccc(Nc2nnc(C(=O)Nc3ccc(O[C@H]4CC[C@@H](C(=O)O)CC4)nc3)o2)cc1 [Example 9, (1s,4s)-4-(5-(5-(4-tert-butylphenylamino)-1,3,4-oxadiazole-2-carboxamido)pyridin-2-yloxy)cyclohexanecarboxylic acid]	7.26
Cc1cc(OC2CCC(C(=O)O)CC2)ncc1NC(=O)c1nnc(Nc2ccc(F)c(Cl)c2)o1 (stereo not drawn) [Example 41, (1s,4s)-4-(5-(5-(3-Chloro-4-fluorophenylamino)-1,3,4-oxadiazole-2-carboxamido)-4-methylpyridin-2-yloxy) cyclohexanecarboxylic acid]	8.47
O=C(Nc1ccc(O[C@H]2CC[C@H](C(=O)O)CC2)nc1)c1nnc(Nc2ccc(F)c(Cl)c2)o1 [Example 24, (1r,4r)-4-(5-(5-(3-chloro-4-fluoro-phenylamino)-1,3,4-oxadiazole-2-carboxamido)pyridin-2-yloxy)cyclo-hexane-carboxylic acid]	7.70
O=C(Nc1ccc(O[C@H]2CC[C@H](C(=O)O)CC2)nc1)c1nnc(Nc2ccc(OC(F)(F)F)cc2)o1 [Example 25, (1r,4r)-4-(5-(5-(4-(trifluoro-methoxy)phenylamino)-1,3,4-oxadiazole-2-carboxamido)pyridin-2-yloxy)cyclo-hexane-carboxylic acid]	7.28
CC(C)c1ccc(Nc2nnc(C(=O)Nc3ccc(O[C@H]4CC[C@@H](C(=O)O)CC4)nc3)o2)cc1 [Example 10, (1s,4s)-4-(5-(5-(4-isopropylphenylamino)-1,3,4-oxadiazole-2-carboxamido)pyridin-2-yloxy)cyclohexanecarboxylic acid]	7.72
CC(C)c1ccc(Nc2nnc(C(=O)Nc3ccc(O[C@H]4CC[C@H](C(=O)O)CC4)nc3)o2)cc1 [Example 30, (1r,4r)-4-(5-(5-(4-isopropyl-phenylamino)-1,3,4-oxadiazole-2-carboxamido)pyridin-2-yloxy)cyclo-hexane-carboxylic acid]	7.77
O=C(Nc1ccc(O[C@H]2CC[C@@H](C(=O)O)CC2)nc1)c1nnc(Nc2cccc(Cl)c2Cl)o1 [Example 14, (1s,4s)-4-(5-(5-(2,3-dichlorophenylamino)-1,3,4-oxadiazole-2-carboxamido)pyridin-2-yloxy)cyclohexanecarboxylic acid]	7.96
O=C(Nc1ccc(O[C@H]2CC[C@@H](C(=O)O)CC2)nc1)c1nnc(Nc2cccc(Cl)c2)o1 [Example 7, (1s,4s)-4-(5-(5-(3-chlorophenylamino)-1,3,4-oxadiazole-2-carboxamido)pyridin-2-yloxy)cyclohexanecarboxylic acid]	8.00
O=C(Nc1ccc(O[C@H]2CC[C@@H](C(=O)O)CC2)nc1)c1nnc(Nc2ccc(F)c(Cl)c2)o1 [Example 16, (1s,4s)-4-(5-(5-(3-chloro-4-fluorophenylamino)-1,1,4-oxadiazole-2-carboxamido)pyridin-2-yloxy)cyclohexanecarboxylic acid]	8.42
O=C(Nc1cnc(O[C@H]2CC[C@@H](C(=O)O)CC2)c(F)c1)c1nnc(Nc2ccc(F)c(F)c2)o1 [Example 60, (1s,4s)-4-(5-(5-(3,4-Difluorophenylamino)-1,3,4-oxadiazole-2-carboxamido)-3-fluoropyridin-2-yloxy)cyclohexanecarboxylic acid]	7.85
Cc1cc(OC2CCC(C(=O)O)CC2)ncc1NC(=O)c1nnc(Nc2ccc(Cl)c(F)c2)o1 (stereo not drawn) [Example 42, (1s,4s)-4-(5-(5-(4 - Chloro-3-fluorophenylamino)-1,3,4-oxadiazole-2-carboxamido)-4-methylpyridin-2-yloxy) cyclohexanecarboxylic acid]	8.96
O=C(Nc1ccc(O[C@H]2CC[C@@H](C(=O)O)CC2)nc1)c1nnc(Nc2ccc(Br)cc2Cl)o1 [Example 13, (1s,4s)-4-(5-(5-(4-bromo-2-chlorophenylamino)-1,3,4-oxadiazole-2-carboxamido)pyridin-2-yloxy)cyclohexanecarboxylic acid]	7.96

Further compounds by rising pIC50, results first:

pIC50	SMILES
7.30	COc1cc(O[C@H]2CC[C@@H](C(=O)O)CC2)ncc1NC(=O)c1nnc(Nc2ccc(F)c(F)c2)o1 [Example 43, (1s,4s)-4-(5-(5-(3,4-Difluorophenylamino)-1,3,4-oxadiazole-2-carboxamido)-4-methoxypyridin-2-yloxy)cyclohexanecarboxylic acid]
7.68	O=C(Nc1ccc(O[C@H]2CC[C@H](C(=O)O)CC2)nc1)c1nnc(Nc2cccc(OC(F)(F)F)c2)o1 [Example 34, (1r,4r)-4-(5-(5-(3-(trifluoromethoxy)phenylamino)-1,3,4-oxadiazole-2-carboxamido)pyridin-2-yloxy)cyclohexanecarboxylic acid]
7.68	Cc1cc(NC(=O)c2nnc(Nc3cccc(Cl)c3)o2)cnc1O[C@H]1CC[C@@H](C(=O)O)CC1 [Example 18, (1s,4s)-4-(5-(5-(3-chlorophenylamino)-1,3,4-oxadiazole-2-carboxamido)-3-methylpyridin-2-yloxy)cyclohexanecarboxylic acid]
7.72	O=C(Nc1cnc(O[C@H]2CC[C@@H](C(=O)O)CC2)c(F)c1)c1nnc(Nc2ccc(F)c(Cl)c2)o1 [Example 61, (1s,4s)-4-(5-(5-(3-Chloro-4-fluorophenylamino)-1,3,4-oxadiazole-2-carboxamido)-3-fluoropyridin-2-yloxy)cyclohexanecarboxylic acid]
7.74	O=C(O)C[C@H]1CC[C@H](Oc2ccc(NC(=O)c3nnc(Nc4ccc(F)c(F)c4)o3)cn2)CC1 [Example 37, 2-((1r,4r)-4-(5-(5-(3,4-difluorophenylamino)-1,3,4-oxadiazole-2-carboxamido)pyridin-2-yloxy)cyclohexyl)acetic acid]
8.68	O=C(Nc1ccc(O[C@H]2C[C@H](C(=O)O)C2)nc1)c1nnc(Nc2ccc(F)c(F)c2)o1 [Example 66, trans-3-(5-(5-(3,4-difluorophenylamino)-1,3,4-oxadiazole-2-carboxamido)pyridin-2-yloxy)cyclobutanecarboxylic acid]
